Measured values as given in US20230365546A1, “5-SUBSTITUTED INDOLE 3-AMIDE DERIVATIVES, PREPARATION METHOD AND USE THEREOF” (ORIGIANT PHARMACEUTICAL CO., LTD, priority 2020, published 2023).

Legend:
HT-29 cells = experiment: Protection against programmed necrosis of HT-29 cells (TNF α/Smac mimetic/Z-VAD-FMK, CCK8); assay type: cell-based; details: Homo sapiens, TNF α/Smac mimetic/Z-VAD-FMK induced 24 h, CCK8, read-out: HT-29 (EC50)
Description: In vitro protection against programmed necrosis of HT-29 cells was conducted by ourselves.
DMEM medium was purchased from Gibco Inc., penicillin and streptomycin were purchased from HyClone Inc., TNF α was purchased from PeproTech Inc., Smac mimetic and Z-VAD-FMK were purchased from Selleck Inc., CCK8 was purchased from Medchem Express Inc.
HT-29 cells (colon cancer cells) were cultured in DMEM+10% FBS+Penicillin/Streptomycin medium. During the experiments, HT-29 cells in logarithmic growth phase were harvested, seeded in a 96-well plate at specific numbers per well (typically 8×10^3 cells/well of adherent cells) and cultured overnight in a 37° C., 5% CO2 cell culture incubator. The next day, the compounds to be tested were diluted with culture medium to the corresponding concentrations and added into the corresponding wells of a 96-well plate, with 3 replicate wells for each sample, and a Vehicle control group and a blank Control group containing only culture medium were set at the same time. […] The absorbance was measured at 495 nm wavelength using a microplate reader, and the protection rate of the drug on the cells necrosis was calculated according to the following formula:
Protection rate of cell necrosis=[(X−C0)/(C−C0)]×100%
Wherein, C, C0, and X represent the mean absorbance values of the Vehicle control group, Blank control group and Drug treatment group, respectively.

RIPK1 = RIPK1 (Homo sapiens (Human), UniProt Q13546); experiment: In vitro kinase assay (Eurofins Kinase Profiler), IC50; assay type: biochemical; details: 0.001-10 μM, read-out: RIPK 1 (IC50)
Chain of RIPK1 (Q13546 whole entry): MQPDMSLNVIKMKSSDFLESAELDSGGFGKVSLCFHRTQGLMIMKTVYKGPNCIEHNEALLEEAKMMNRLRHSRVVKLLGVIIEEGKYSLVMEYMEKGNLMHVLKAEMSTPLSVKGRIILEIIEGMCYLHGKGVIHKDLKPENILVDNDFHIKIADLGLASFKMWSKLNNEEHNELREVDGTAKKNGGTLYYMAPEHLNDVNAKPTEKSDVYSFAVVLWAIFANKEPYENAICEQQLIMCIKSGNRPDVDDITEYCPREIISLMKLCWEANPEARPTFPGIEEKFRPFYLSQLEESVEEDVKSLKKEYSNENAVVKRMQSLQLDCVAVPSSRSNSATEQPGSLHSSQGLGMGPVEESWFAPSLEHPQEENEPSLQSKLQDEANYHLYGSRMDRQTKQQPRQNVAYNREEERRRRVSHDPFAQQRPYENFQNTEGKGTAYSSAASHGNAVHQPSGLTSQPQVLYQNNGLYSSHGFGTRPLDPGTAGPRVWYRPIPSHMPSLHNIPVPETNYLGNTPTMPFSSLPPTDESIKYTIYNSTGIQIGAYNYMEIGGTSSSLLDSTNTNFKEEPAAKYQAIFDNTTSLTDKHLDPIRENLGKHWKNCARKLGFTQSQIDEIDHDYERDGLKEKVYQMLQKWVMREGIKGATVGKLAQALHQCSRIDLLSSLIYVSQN

Compound	IC50 (RIPK1)	EC50 (HT-29 cells)
CC(C)C(=O)Nc1nc2ccc(-c3ccc4[nH]cc(C(=O)N[C@@H](C)c5cccc(F)c5)c4c3)cc2s1 [Compound 55]	10 to 100 nM	1 to 10 nM
CC(C)n1cc(C(=O)NCc2cc(F)ccc2F)c2cc(-c3ccc4nc(NC(=O)C5CC5)sc4c3)ccc21 [Compound 56]	10 to 100 nM	1 to 10 nM
CCCn1cc(C(=O)NCc2cc(F)ccc2F)c2cc(-c3ccc4nc(NC(=O)C5CC5)sc4c3)ccc21 [Compound 57]	100 to 1000 nM	10 to 100 nM
CCCCn1cc(C(=O)NCc2cc(F)ccc2F)c2cc(-c3ccc4nc(NC(=O)C5CC5)sc4c3)ccc21 [Compound 58]	100 to 1000 nM	100 to 1000 nM
C[C@H](NC(=O)c1n[nH]c2ccc(-c3ccc4nc(NC(=O)C5CC5)sc4c3)cc12)c1cccc(F)c1 [Compound 59]	10 to 100 nM	1 to 10 nM
COc1cc(F)ccc1NC(=O)c1c[nH]c2ncc(-c3ccc4nc(NC(=O)C5CC5)sc4c3)cc12 [Compound 60]	≥ 1000 nM	≥ 1000 nM
COc1cc(F)ccc1NC(=O)c1n[nH]c2ccc(-c3ccc4nc(NC(=O)C5CC5)sc4c3)cc12 [Compound 61]	≥ 1000 nM	≥ 1000 nM
C[C@H](NC(=O)c1c[nH]c2ncc(-c3ccc4nc(NC(=O)C5CC5)sc4c3)cc12)c1cccc(F)c1 [Compound 62]	100 to 1000 nM	1 to 10 nM
COc1ccc(NC(=O)c2c[nH]c3ncc(-c4ccc5nc(NC(=O)C6CC6)sc5c4)cc23)cc1OC [Compound 63]	10 to 100 nM	10 to 100 nM
COc1ccc(CNC(=O)c2c[nH]c3ncc(-c4ccc5nc(NC(=O)C6CC6)sc5c4)cc23)cc1OC [Compound 64]	100 to 1000 nM	10 to 100 nM
COc1ccc(CNC(=O)c2cn(C)c3ccc(-c4ccc5nc(NC(=O)C6CC6)sc5c4)cc23)cc1OC [Compound 65]	100 to 1000 nM	10 to 100 nM
Cn1cc(C(=O)N2CCN(Cc3ccc4c(c3)OCO4)CC2)c2cc(-c3ccc4nc(NC(=O)C5CC5)sc4c3)ccc21 [Compound 66]	≥ 1000 nM	≥ 1000 nM
COc1cc(CN2CCN(C(=O)c3cn(C)c4ccc(-c5ccc6nc(NC(=O)C7CC7)sc6c5)cc34)CC2)cc(OC)c1OC [Compound 67]	≥ 1000 nM	≥ 1000 nM
Cc1noc(C)c1-c1cnc2[nH]cc(C(=O)N[C@@H](C)c3cccc(F)c3)c2c1 [Compound 69]	≥ 1000 nM	≥ 1000 nM
C[C@H](NC(=O)c1c[nH]c2ncc(-c3ccnn3C3CCCCO3)cc12)c1cccc(F)c1 (some centres unmarked) [Compound 75]	≥ 1000 nM	100 to 1000 nM
Cn1cc(C(=O)NCc2ccc(F)cc2)c2cc(-c3ccc4nc(NC(=O)C5CC5)sc4c3)ccc21 [Compound 79]	100 to 1000 nM	10 to 100 nM
O=C(NCc1ccc(F)cc1F)c1c[nH]c2ncc(-c3ccc4nc(NC(=O)C5CC5)sc4c3)cc12 [Compound 80]	100 to 1000 nM	10 to 100 nM
C[C@H](NC(=O)c1c[nH]c2ccc(-c3ccc4nc(NC(=O)C5CC5)[nH]c4c3)cc12)c1cccc(F)c1 [Compound 81]	10 to 100 nM	100 to 1000 nM
C[C@H](NC(=O)c1c[nH]c2ccc(-c3ccn4nc(NC(=O)C5CC5)nc4c3)cc12)c1cccc(F)c1 [Compound 82]	10 to 100 nM	100 to 1000 nM
Cc1noc(C)c1CNC(=O)c1c[nH]c2ccc(-c3ccc4nc(NC(=O)C5CC5)sc4c3)cc12 [Compound 84]	100 to 1000 nM	100 to 1000 nM
O=C(NCc1ccn[nH]1)c1c[nH]c2ccc(-c3ccc4nc(NC(=O)C5CC5)sc4c3)cc12 [Compound 85]	≥ 1000 nM	≥ 1000 nM
Cn1cc(CNC(=O)c2c[nH]c3ccc(-c4ccc5nc(NC(=O)C6CC6)sc5c4)cc23)cn1 [Compound 86]	≥ 1000 nM	≥ 1000 nM
O=C(NCc1ccc2[nH]ccc2c1)c1c[nH]c2ccc(-c3ccc4nc(NC(=O)C5CC5)sc4c3)cc12 [Compound 87]	≥ 1000 nM	≥ 1000 nM
C[C@H](NC(=O)c1c[nH]c2ccc(-c3ccc4nc(NC(=O)C5CC5)sc4n3)cc12)c1cccc(F)c1 [Compound 88]	10 to 100 nM	1 to 10 nM
COCC(=O)Nc1nc2ccc(-c3ccc4[nH]cc(C(=O)N[C@@H](C)c5cccc(F)c5)c4c3)cn2n1 [Compound 92]	100 to 1000 nM	100 to 1000 nM
O=C(NCc1ccc(N2CCOCC2)cc1)c1c[nH]c2ccc(-c3ccc4nc(NC(=O)C5CC5)sc4c3)cc12 [Compound 93]	≥ 1000 nM	≥ 1000 nM
COCC(=O)Nc1nc2ccc(-c3ccc4[nH]cc(C(=O)NCc5cccc(F)c5)c4c3)cn2n1 [Compound 95]	100 to 1000 nM	100 to 1000 nM
O=C(NCc1ccc(N2CCOCC2)cc1)c1c[nH]c2ccc(-c3ccn4nc(NC(=O)C5CC5)nc4c3)cc12 [Compound 97]	≥ 1000 nM	≥ 1000 nM
O=C(NCc1ccc(N2CCOCC2)cc1)c1c[nH]c2ccc(-c3ccc4nc(NC(=O)C5CC5)sc4n3)cc12 [Compound 99]	≥ 1000 nM	≥ 1000 nM

More lines, main results first:

IC50 (RIPK1)	Compound	EC50 (HT-29 cells)
≥ 1000 nM	C[C@H](NC(=O)c1cn(C)c2ccc(-c3ccc(CN4CCN(C)CC4)cc3)cc12)c1cccc(F)c1 [Compound 68]	≥ 1000 nM
≥ 1000 nM	C[C@H](NC(=O)c1cn(C)c2ccc(-c3ccc(C(=O)N4CCOCC4)cc3)cc12)c1cccc(F)c1 [Compound 70]	100 to 1000 nM
≥ 1000 nM	C[C@H](NC(=O)c1cn(C)c2ccc(-c3ccnn3C3CCCCO3)cc12)c1cccc(F)c1 (some centres unmarked) [Compound 71]	≥ 1000 nM
≥ 1000 nM	C[C@H](NC(=O)c1cn(C)c2ccc(-c3ccc(N4CCOCC4)cc3)cc12)c1cccc(F)c1 [Compound 72]	≥ 1000 nM
≥ 1000 nM	C[C@H](NC(=O)c1cn(C)c2ccc(-c3ccc(N4CCOCC4)nc3)cc12)c1cccc(F)c1 [Compound 73]	≥ 1000 nM
100 to 1000 nM	C[C@H](NC(=O)c1c[nH]c2ncc(-c3ccc(C(=O)N4CCOCC4)cc3)cc12)c1cccc(F)c1 [Compound 74]	100 to 1000 nM
100 to 1000 nM	C[C@H](NC(=O)c1c[nH]c2ncc(-c3ccc(N4CCOCC4)cc3)cc12)c1cccc(F)c1 [Compound 76]	100 to 1000 nM
100 to 1000 nM	C[C@H](NC(=O)c1c[nH]c2ncc(-c3ccc(N4CCOCC4)nc3)cc12)c1cccc(F)c1 [Compound 77]	100 to 1000 nM
≥ 1000 nM	C[C@H](NC(=O)c1cn(C)c2ccc(-c3cc[nH]n3)cc12)c1cccc(F)c1 [Compound 78]	100 to 1000 nM
100 to 1000 nM	C[C@H](NC(=O)c1c[nH]c2ccc(-c3ccc4c(N)ncnn34)cc12)c1cccc(F)c1 [Compound 83]	100 to 1000 nM
10 to 100 nM	C[C@H](NC(=O)c1cn(C)c2ccc(-c3ccc4nc(NC(=O)C5CC5)sc4n3)cc12)c1cccc(F)c1 [Compound 89]	1 to 10 nM
100 to 1000 nM	COCC(=O)Nc1nc2ccc(-c3ccc4c(c3)c(C(=O)N[C@@H](C)c3cccc(F)c3)cn4C)nc2s1 [Compound 91]	100 to 1000 nM
10 to 100 nM	COCC(=O)Nc1nc2ccc(-c3ccc4c(c3)c(C(=O)N[C@@H](C)c3cccc(F)c3)cn4C)cn2n1 [Compound 96]	10 to 100 nM
≥ 1000 nM	Cn1cc(C(=O)NCc2ccc(N3CCOCC3)cc2)c2cc(-c3ccn4nc(NC(=O)C5CC5)nc4c3)ccc21 [Compound 98]	≥ 1000 nM
